Measurements from publication PMC7265341, “Quantifying CDK inhibitor selectivity in live cells” (Nature Communications, 2020).
Where two headings read alike, the source gives them in different places.

Assays:
[1] = molecular target: CDK13/Cyclin K (Homo sapiens, UniProt Q14004); assay: NanoBRET live-cell target engagement, CDK13-NanoLuc/Cyclin K in HEK-293; format: binding; details: CDK13/K, read-out: Inhibition at 10µM (%)
[2] = molecular target: CDK15/Cyclin Y (Homo sapiens, UniProt Q96Q40); assay: NanoBRET live-cell target engagement, NanoLuc-CDK15/Cyclin Y in HEK-293; format: binding; details: CDK15/Y, read-out: Inhibition at 10µM (%)
CDK15/Cyclin Y, sequence (Q96Q40 whole entry): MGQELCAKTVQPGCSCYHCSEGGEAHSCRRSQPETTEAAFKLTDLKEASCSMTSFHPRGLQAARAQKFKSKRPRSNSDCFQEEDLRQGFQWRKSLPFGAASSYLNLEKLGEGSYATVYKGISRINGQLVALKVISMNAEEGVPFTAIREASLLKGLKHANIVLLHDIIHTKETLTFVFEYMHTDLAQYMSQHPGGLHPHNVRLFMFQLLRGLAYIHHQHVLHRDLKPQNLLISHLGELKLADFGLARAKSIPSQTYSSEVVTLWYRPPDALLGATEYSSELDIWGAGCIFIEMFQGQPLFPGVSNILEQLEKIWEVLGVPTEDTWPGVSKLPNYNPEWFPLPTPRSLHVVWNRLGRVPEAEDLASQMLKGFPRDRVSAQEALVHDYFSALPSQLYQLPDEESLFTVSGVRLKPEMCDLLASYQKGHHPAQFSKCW
CDK15/Cyclin Y, sequence (Q8ND76 whole entry partner): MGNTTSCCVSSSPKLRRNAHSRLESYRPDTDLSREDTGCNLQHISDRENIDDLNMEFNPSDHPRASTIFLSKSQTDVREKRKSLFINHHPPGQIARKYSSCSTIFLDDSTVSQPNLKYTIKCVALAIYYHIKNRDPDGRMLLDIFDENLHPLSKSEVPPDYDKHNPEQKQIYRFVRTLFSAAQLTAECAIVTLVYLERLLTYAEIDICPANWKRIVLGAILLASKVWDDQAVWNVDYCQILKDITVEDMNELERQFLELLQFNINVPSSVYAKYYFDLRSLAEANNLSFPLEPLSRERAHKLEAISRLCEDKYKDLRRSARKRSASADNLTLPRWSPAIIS

[3] = molecular target: CDK11B/Cyclin L2 (Homo sapiens, UniProt P21127); assay: NanoBRET live-cell target engagement, CDK11B-NanoLuc/Cyclin L2 in HEK-293; format: binding; details: CDK11b/L2, read-out: Inhibition at 10µM (%)
[4] = molecular target: CDK1/Cyclin E1 (Homo sapiens, UniProt P06493); assay: NanoBRET live-cell target engagement, CDK1-NanoLuc/Cyclin E1 in HEK-293; format: binding; details: CDK1/E1, read-out: Inhibition at 10µM (%)
[5] = molecular target: CDK6/Cyclin D1 (Homo sapiens, UniProt Q00534); assay: NanoBRET live-cell target engagement, NanoLuc-CDK6/Cyclin D1 in HEK-293; format: binding; details: CDK6/D1; for IC50: read-out: IC50; for inhibition at 10 µM: read-out: Inhibition at 10µM (%)
CDK6/Cyclin D1, sequence (Q00534 whole entry): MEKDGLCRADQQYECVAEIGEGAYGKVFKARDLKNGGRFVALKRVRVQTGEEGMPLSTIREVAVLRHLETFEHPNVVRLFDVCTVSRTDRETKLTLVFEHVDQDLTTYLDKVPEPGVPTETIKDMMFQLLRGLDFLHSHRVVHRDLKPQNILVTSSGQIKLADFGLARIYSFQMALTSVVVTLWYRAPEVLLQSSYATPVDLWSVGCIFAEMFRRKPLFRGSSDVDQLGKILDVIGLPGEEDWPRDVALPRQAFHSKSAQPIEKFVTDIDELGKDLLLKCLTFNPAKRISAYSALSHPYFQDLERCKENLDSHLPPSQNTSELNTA
CDK6/Cyclin D1, sequence (P24385 whole entry partner): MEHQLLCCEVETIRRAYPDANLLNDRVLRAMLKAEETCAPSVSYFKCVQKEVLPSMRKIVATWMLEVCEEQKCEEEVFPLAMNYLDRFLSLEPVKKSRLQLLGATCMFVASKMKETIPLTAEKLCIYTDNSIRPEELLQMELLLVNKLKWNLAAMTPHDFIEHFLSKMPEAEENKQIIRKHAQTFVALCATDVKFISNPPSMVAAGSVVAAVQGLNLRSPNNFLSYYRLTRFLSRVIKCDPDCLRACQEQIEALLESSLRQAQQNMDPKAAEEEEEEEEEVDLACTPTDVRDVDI

[6] = molecular target: CDK3/Cyclin E1 (Homo sapiens, UniProt Q00526); assay: NanoBRET live-cell target engagement, CDK3-NanoLuc/Cyclin E1 in HEK-293; format: binding; details: CDK3/E1, read-out: Inhibition at 10µM (%)
[7] = molecular target: CDK2/Cyclin E1 (Homo sapiens, UniProt P24941); assay: NanoBRET live-cell target engagement, CDK2-NanoLuc/Cyclin E1 in HEK-293; format: binding; details: CDK2/E1, read-out: Inhibition at 10µM (%)
[8] = molecular target: CDK18/Cyclin Y (Homo sapiens, UniProt Q07002); assay: NanoBRET live-cell target engagement, CDK18-NanoLuc/Cyclin Y in HEK-293; format: binding; details: CDK18/Y; for IC50: read-out: IC50; for inhibition at 10 µM: read-out: Inhibition at 10µM (%)
[9] = molecular target: CDK5/CDK5R1 (Homo sapiens, UniProt Q00535); assay: NanoBRET live-cell target engagement, CDK5-NanoLuc/CDK5R1 in HEK-293; format: binding; details: CDK5/CDK5R1, read-out: Inhibition at 10µM (%)
CDK5/CDK5R1, sequence (Q00535 whole entry): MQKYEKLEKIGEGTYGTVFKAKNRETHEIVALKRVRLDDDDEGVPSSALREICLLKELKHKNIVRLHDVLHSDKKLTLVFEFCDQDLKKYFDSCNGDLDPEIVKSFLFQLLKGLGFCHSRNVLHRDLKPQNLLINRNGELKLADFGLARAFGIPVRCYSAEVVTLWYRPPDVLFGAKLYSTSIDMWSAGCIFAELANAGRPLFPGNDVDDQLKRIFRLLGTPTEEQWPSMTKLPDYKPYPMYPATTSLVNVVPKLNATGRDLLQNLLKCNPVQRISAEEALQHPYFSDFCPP
CDK5/CDK5R1, sequence (Q15078 whole entry partner): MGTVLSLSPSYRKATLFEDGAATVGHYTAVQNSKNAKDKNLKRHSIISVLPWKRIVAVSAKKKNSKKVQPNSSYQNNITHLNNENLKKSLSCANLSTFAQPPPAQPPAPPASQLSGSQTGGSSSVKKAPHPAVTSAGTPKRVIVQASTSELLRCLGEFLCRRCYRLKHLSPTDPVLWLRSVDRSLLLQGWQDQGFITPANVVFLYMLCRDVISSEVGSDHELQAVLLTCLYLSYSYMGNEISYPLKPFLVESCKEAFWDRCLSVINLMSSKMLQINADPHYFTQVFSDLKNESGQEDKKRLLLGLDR

[10] = molecular target: CDK12/Cyclin K (Homo sapiens, UniProt Q9NYV4); assay: NanoBRET live-cell target engagement, CDK12-NanoLuc/Cyclin K in HEK-293; format: binding; details: CDK12/K, read-out: Inhibition at 10µM (%)
[11] = molecular target: T1, CDK11A/Cyclin L2 (Homo sapiens, UniProt Q9UQ88); assay: NanoBRET live-cell target engagement, CDK11A-NanoLuc/Cyclin L2 in HEK-293; format: binding; details: CDK11a/L2, read-out: Inhibition at 10µM (%)
T1 sequence (Q9UQ88 1-783): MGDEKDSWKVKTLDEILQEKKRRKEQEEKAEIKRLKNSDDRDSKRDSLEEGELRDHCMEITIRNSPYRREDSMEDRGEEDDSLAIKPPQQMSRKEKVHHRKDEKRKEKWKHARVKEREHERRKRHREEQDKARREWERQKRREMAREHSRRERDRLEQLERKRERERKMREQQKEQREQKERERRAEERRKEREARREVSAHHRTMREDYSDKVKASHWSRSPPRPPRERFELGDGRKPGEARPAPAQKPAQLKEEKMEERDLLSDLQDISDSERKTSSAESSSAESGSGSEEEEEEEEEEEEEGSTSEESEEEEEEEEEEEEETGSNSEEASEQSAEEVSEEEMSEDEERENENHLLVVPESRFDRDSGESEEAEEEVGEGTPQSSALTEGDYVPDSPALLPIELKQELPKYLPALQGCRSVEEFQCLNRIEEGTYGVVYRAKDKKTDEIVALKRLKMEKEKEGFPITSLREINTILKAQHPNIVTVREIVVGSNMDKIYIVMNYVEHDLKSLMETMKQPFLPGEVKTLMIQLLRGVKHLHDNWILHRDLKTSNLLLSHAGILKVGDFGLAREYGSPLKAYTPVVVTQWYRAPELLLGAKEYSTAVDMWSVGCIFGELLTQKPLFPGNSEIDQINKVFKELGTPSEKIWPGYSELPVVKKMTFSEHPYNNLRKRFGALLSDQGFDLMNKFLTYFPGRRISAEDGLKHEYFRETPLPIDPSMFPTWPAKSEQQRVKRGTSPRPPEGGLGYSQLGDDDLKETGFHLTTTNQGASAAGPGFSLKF

[12] = molecular target: CDK17/Cyclin Y (Homo sapiens, UniProt Q00537); assay: NanoBRET live-cell target engagement, CDK17-NanoLuc/Cyclin Y in HEK-293; format: binding; details: CDK17/Y; for IC50: read-out: IC50; for inhibition at 10 µM: read-out: Inhibition at 10µM (%)
CDK17/Cyclin Y, sequence (Q00537 whole entry): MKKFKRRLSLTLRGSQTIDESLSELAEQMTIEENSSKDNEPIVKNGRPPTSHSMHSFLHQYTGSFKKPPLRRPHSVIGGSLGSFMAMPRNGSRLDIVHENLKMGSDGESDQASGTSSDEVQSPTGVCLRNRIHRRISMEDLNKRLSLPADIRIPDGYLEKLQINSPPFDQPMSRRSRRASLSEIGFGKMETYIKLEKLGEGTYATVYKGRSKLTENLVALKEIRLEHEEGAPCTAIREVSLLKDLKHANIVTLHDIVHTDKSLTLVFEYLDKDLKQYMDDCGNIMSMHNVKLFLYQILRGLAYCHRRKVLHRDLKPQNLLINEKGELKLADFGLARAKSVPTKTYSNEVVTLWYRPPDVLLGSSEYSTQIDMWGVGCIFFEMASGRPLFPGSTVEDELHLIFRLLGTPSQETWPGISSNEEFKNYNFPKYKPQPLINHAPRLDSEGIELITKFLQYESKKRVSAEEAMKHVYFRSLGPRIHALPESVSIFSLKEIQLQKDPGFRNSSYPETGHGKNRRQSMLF
CDK17/Cyclin Y, sequence (Q8ND76 whole entry partner): as the sequence (Q8ND76 whole entry partner) above

[13] = molecular target: CDK8/Cyclin C (Homo sapiens, UniProt P49336); assay: NanoBRET live-cell target engagement, NanoLuc-CDK8/Cyclin C in HEK-293; format: binding; details: CDK8/C, read-out: Inhibition at 10µM (%)
[14] = molecular target: CDK9/Cyclin K (Homo sapiens, UniProt P50750); assay: NanoBRET live-cell target engagement, NanoLuc-CDK9/Cyclin K in HEK-293; format: binding; details: CDK9/K, read-out: Inhibition at 10µM (%)
CDK9/Cyclin K, sequence (P50750 whole entry): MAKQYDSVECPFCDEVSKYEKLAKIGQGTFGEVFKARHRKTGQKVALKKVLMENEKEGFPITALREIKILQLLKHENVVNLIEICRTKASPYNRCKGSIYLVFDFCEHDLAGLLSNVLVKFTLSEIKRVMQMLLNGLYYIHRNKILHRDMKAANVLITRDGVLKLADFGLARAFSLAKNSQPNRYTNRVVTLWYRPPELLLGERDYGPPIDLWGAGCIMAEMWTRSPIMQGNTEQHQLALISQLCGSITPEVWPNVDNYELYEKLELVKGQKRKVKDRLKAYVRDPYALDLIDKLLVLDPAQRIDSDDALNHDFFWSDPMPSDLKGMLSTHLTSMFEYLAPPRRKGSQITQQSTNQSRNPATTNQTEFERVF
CDK9/Cyclin K, sequence (O75909 whole entry partner): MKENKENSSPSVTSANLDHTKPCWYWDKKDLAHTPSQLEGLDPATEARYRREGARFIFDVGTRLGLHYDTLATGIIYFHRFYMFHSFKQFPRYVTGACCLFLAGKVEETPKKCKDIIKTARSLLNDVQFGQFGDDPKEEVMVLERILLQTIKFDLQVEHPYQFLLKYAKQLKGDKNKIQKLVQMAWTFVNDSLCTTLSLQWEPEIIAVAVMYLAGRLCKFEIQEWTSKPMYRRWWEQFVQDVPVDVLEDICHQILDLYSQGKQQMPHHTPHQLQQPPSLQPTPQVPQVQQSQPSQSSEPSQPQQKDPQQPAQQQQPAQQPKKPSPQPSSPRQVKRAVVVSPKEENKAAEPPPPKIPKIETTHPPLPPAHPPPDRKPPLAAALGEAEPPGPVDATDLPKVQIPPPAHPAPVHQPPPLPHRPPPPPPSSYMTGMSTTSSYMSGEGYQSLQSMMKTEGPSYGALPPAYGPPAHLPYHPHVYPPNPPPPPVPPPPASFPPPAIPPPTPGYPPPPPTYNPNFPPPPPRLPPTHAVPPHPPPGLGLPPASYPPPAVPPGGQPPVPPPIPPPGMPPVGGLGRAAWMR

[15] = molecular target: CDK4/Cyclin D1 (Homo sapiens, UniProt P11802); assay: NanoBRET live-cell target engagement, NanoLuc-CDK4/Cyclin D1 in HEK-293; format: binding; details: CDK4/D1; for IC50: read-out: IC50; for inhibition at 10 µM: read-out: Inhibition at 10µM (%)
CDK4/Cyclin D1, sequence (P11802 whole entry): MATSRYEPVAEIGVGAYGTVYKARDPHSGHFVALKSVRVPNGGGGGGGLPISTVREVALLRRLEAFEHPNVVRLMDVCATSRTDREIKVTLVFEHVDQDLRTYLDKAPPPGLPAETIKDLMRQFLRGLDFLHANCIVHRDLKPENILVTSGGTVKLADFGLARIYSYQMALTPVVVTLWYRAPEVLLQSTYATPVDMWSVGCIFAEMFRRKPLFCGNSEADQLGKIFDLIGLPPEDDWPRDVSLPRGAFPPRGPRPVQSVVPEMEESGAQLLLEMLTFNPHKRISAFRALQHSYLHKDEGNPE
CDK4/Cyclin D1, sequence (P24385 whole entry partner): as the sequence (P24385 whole entry partner) above

[16] = molecular target: CDK10/Cyclin L2 (Homo sapiens, UniProt Q15131); assay: NanoBRET live-cell target engagement, CDK10-NanoLuc/Cyclin L2 in HEK-293; details: read-out: Inhibition at 10µM (%), CDK10/L2
[17] = molecular target: CDK19/Cyclin C (Homo sapiens, UniProt Q9BWU1); assay: NanoBRET live-cell target engagement, NanoLuc-CDK19/Cyclin C in HEK-293; details: read-out: Inhibition at 10µM (%), CDK19/C
CDK19/Cyclin C, sequence (Q9BWU1 whole entry): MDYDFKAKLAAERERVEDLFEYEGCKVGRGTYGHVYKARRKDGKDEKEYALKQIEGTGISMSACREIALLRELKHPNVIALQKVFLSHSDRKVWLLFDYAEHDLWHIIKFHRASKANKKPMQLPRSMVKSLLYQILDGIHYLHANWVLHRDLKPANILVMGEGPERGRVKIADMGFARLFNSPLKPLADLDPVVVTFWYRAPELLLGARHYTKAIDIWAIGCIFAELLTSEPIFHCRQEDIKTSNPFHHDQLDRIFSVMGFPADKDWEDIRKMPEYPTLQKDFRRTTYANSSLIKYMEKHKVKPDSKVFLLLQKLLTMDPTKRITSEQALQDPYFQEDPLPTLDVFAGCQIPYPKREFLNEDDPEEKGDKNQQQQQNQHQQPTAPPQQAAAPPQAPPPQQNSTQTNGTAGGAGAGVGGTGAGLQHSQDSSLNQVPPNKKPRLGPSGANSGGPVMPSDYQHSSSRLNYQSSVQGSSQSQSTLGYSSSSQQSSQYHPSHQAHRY
CDK19/Cyclin C, sequence (P24863 whole entry partner): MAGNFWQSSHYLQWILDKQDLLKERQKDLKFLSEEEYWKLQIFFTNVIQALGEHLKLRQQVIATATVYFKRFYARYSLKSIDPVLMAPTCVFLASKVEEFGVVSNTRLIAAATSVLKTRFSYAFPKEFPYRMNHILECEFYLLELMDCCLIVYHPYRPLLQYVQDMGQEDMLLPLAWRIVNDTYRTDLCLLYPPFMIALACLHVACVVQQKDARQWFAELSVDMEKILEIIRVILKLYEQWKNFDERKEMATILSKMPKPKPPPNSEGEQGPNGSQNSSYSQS

[18] = molecular target: CDK16/Cyclin Y (Homo sapiens, UniProt Q00536); assay: NanoBRET live-cell target engagement, CDK16-NanoLuc/Cyclin Y in HEK-293; format: binding; details: CDK16/Y; for IC50: read-out: IC50; for inhibition at 10 µM: read-out: Inhibition at 10µM (%)
[19] = molecular target: CDK20/Cyclin H (Homo sapiens, UniProt Q8IZL9); assay: NanoBRET live-cell target engagement, NanoLuc-CDK20/Cyclin H in HEK-293; format: binding; details: CDK20/H, read-out: Inhibition at 10µM (%)

## CN1CCN(c2ccc(Nc3ncc4cc(C#N)c(=O)n(C5CCCC5)c4n3)cc2)CC1 [ON123300]
[1]; average
  inhibition at 10 µM: -15.1%
[1]; experiment 1
  inhibition at 10 µM: -1%
[1]; experiment 2
  inhibition at 10 µM: -29.2%
[2]; average
  inhibition at 10 µM: 29.2%
[2]; experiment 1
  inhibition at 10 µM: 36%
[2]; experiment 2
  inhibition at 10 µM: 22.5%
[3]; average
  inhibition at 10 µM: 36.8%
[3]; experiment 1
  inhibition at 10 µM: 11.7%
[3]; experiment 2
  inhibition at 10 µM: 61.9%
[4]; average
  inhibition at 10 µM: 18.6%
[4]; experiment 1
  inhibition at 10 µM: 20.1%
[4]; experiment 2
  inhibition at 10 µM: 17.1%
[5]; average (± SEM where n=3)
  IC50: 4 ± 1 nM
[5]; average
  inhibition at 10 µM: 97.7%
[5]; experiment 1
  IC50: 4.8 nM
  inhibition at 10 µM: 96.9%
[5]; experiment 2
  IC50: 3.4 nM
  inhibition at 10 µM: 98.5%
[5]; experiment 3
  IC50: 3 nM
[6]; average
  inhibition at 10 µM: 24.7%
[6]; experiment 1
  inhibition at 10 µM: 10.5%
[6]; experiment 2
  inhibition at 10 µM: 38.9%
[7]; average
  inhibition at 10 µM: 12.6%
[7]; experiment 1
  inhibition at 10 µM: 14.4%
[7]; experiment 2
  inhibition at 10 µM: 10.7%
[8]; average (± SEM where n=3)
  IC50: 240 ± 50 nM
[8]; average
  inhibition at 10 µM: 38.8%
[8]; experiment 1
  IC50: 283 nM
  inhibition at 10 µM: 27.5%
[8]; experiment 2
  IC50: 300 nM
  inhibition at 10 µM: 50%
[8]; experiment 3
  IC50: 150 nM
[9]; average
  inhibition at 10 µM: 4.3%
[9]; experiment 1
  inhibition at 10 µM: 8%
[9]; experiment 2
  inhibition at 10 µM: 0.554%
[10]; average
  inhibition at 10 µM: -3.9%
[10]; experiment 1
  inhibition at 10 µM: -2.7%
[10]; experiment 2
  inhibition at 10 µM: -5%
[11]; average
  inhibition at 10 µM: 12.6%
[11]; experiment 1
  inhibition at 10 µM: 15.7%
[11]; experiment 2
  inhibition at 10 µM: 9.5%
[12]; average (± SEM where n=3)
  IC50: 40 ± 4 nM
[12]; average
  inhibition at 10 µM: 75.5%
[12]; experiment 1
  IC50: 32 nM
  inhibition at 10 µM: 72.1%
[12]; experiment 2
  IC50: 43 nM
  inhibition at 10 µM: 78.9%
[12]; experiment 3
  IC50: 44 nM
[13]; average
  inhibition at 10 µM: 8.5%
[13]; experiment 1
  inhibition at 10 µM: 6.2%
[13]; experiment 2
  inhibition at 10 µM: 10.8%
[14]; average
  inhibition at 10 µM: 34.2%
[14]; experiment 1
  inhibition at 10 µM: 32%
[14]; experiment 2
  inhibition at 10 µM: 36.4%
[15]; average (± SEM where n=3)
  IC50: 9 ± 3 nM
[15]; average
  inhibition at 10 µM: 95.1%
[15]; experiment 1
  IC50: 6.9 nM
  inhibition at 10 µM: 95.8%
[15]; experiment 2
  IC50: 5 nM
  inhibition at 10 µM: 94.3%
[15]; experiment 3
  IC50: 15 nM
[16]; average
  inhibition at 10 µM: 4.6%
[16]; experiment 1
  inhibition at 10 µM: 8.8%
[16]; experiment 2
  inhibition at 10 µM: 0.3%
[17]; average
  inhibition at 10 µM: -0.3%
[17]; experiment 1
  inhibition at 10 µM: 6.6%
[17]; experiment 2
  inhibition at 10 µM: -7.2%
[18]; average (± SEM where n=3)
  IC50: 39 ± 8 nM
[18]; experiment 1
  IC50: 23 nM
  inhibition at 10 µM: 70.3%
[18]; experiment 2
  IC50: 47 nM
  inhibition at 10 µM: 78.8%
[18]; experiment 3
  IC50: 48 nM
[19]; experiment 1
  inhibition at 10 µM: 23.1%
[19]; experiment 2
  inhibition at 10 µM: 26.8%
